# Data taken from PMC5107130 (Pharmacological Research, 2016).
# “And” between values parts separate entries of the source, which are not always exact repeats. Equal values may be shown once. “Also recorded” adds a separate entry of the source. Read-outs that look alike come from different tables or passages of the source.
# Assays:
# [1] = molecular target: T1, Recombinant full length human CBS (Homo sapiens, UniProt P35520); test: AzMC fluorescence assay of CBS-derived H2S production; format: biochemical; settings: for Confirmation (% inhibition of CBS-induced AzMC fluorescence) / % inhibition of CBS-induced AzMC fluorescence: mean ± SEM, n = 3; for % inhibition of CBS-induced AzMC fluorescence: copper compounds
# T1 sequence (P35520 1-551): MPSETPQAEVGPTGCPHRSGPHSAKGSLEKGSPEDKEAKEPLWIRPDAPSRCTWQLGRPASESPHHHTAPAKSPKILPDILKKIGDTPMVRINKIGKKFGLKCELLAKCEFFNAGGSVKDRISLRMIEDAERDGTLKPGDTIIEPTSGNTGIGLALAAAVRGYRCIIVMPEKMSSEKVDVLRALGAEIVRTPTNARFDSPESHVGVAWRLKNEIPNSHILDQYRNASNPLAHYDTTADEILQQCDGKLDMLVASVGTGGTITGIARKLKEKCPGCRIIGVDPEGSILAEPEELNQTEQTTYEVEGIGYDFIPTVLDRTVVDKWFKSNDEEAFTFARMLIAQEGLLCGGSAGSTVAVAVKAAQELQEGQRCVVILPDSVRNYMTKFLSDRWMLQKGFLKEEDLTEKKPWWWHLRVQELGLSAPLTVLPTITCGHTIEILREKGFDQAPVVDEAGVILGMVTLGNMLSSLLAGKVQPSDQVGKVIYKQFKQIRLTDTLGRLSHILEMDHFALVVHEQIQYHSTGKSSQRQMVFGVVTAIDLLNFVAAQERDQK
# [2] = Counterscreen: AzMC fluorescence signal generated by the H2S donor GYY4137; settings: mean ± SEM, n = 3
# [3] = molecular target: T1, Recombinant full length human CBS; test: Methylene blue assay of CBS-derived H2S; format: biochemical; settings: read-out: % inhibition of CBS-induced methylene blue signal
# HCT116 cells [4] = test: Cell proliferation, xCELLigence system; format: cell-based, human; settings: Cell Index, 48 h, concentration in the value
# HCT116 cells [5] = test: Cytotoxicity, lactate dehydrogenase; format: cell-based, human; settings: 48 h
# [6] = read-out: Confirmation (% inhibition of CBS-induced AzMC fluorescence), 30 μM, mean ± SEM, n = 3
# [7] = read-out: Initial screen (% inhibition of CBS-induced AzMC fluorescence), 30 μM
# [8] = read-out: % inhibition of recombinant CBS activity
# [9] = read-out: % inhibition of CBS-induced AzMC fluorescence, 10 μM, mean ± SEM, n = 3
# [10] = read-out: % inhibition of CBS-induced AzMC fluorescence, 100 μM, mean ± SEM, n = 3
# [11] = read-out: Confirmation (% inhibition of CBS-induced AzMC fluorescence)
# [12] = read-out: Initial screen (% inhibition of CBS-induced AzMC fluorescence)
# [13] = read-out: IC50, inhibition of recombinant CBS (CBS-induced AzMC fluorescence), cell-free, 2 mM L-cysteine and homocysteine
"inhibition at 30 µM [1, 6] [%]","inhibition at 30 µM [1, 7] [%]",Initial screen (% inhibition of CBS-induced AzMC fluorescence) ([1]; 30 μM),Confirmation (% inhibition of CBS-induced AzMC fluorescence) ([1]; 30 μM),Molecule,Confirmation (% inhibition of GYY4137-induced AzMC fluorescence) ([2]; 30 μM),other results
,,69%,58 ± 4%,"O=S(=O)([O-])c1cc(N=C=S)ccc1C=Cc1ccc(N=C=S)cc1S(=O)(=O)[O-].[Na+].[Na+] [DIDS, 4,4′-diisothiocyanostilbene-2,2′-sufonic acid sodium salt]",56 ± 5%,
48 ± 5,58,,,"O=Nc1ccc(O)c2ncccc12 [NSC 3852, 5-Nitroso-8-quinolinol]",47 ± 5%,
58 ± 8,68,70%,59 ± 8%,"O=C1C(SCCO)=C(SCCO)C(=O)c2ccccc21 [NSC 95397, 2,3bis[(2-Hydroxyethyl)thio]-1,4-naphthoquinone]",58 ± 1%,
55 ± 4,48,,,O=C(N/N=C/c1ccc([N+](=O)[O-])o1)c1ccc(O)cc1 [Nifuroxazide],50 ± 2%,
54 ± 2,52,,,NC(=O)N/N=C/c1ccc([N+](=O)[O-])o1 [Nitrofurazone],48 ± 5%,
75 ± 3,68,,,CC(=O)[C@H]1CC[C@H]2[C@@H]3CCC4=CC(=O)CC[C@]4(C)[C@H]3CC[C@]12C [Progesterone],64 ± 1%,
,49,,,Cc1cc(/C=C/c2ccc3cc(N(C)C)ccc3[n+]2C)c(C)n1-c1ccccc1 [Pyrvinium pamoate],36 ± 3%,
59 ± 3,55,,,"Cc1cc2nc3c(=O)[nH]c(=O)nc-3n(C)c2cc1C=O [Ro-08-2750, 2,3,4,10-Tetrahydro-7,10-dimethyl-2,4-dioxobenzo[g]pteridine-8-carboxaldehyde]",69 ± 8%,
,,49%,42 ± 1%,N#C/C(=C\c1ccc(O)c(O)c1)C(=O)NCCCNC(=O)/C(C#N)=C/c1ccc(O)c(O)c1 [Tyrphostin AG 537],48 ± 2%,
,,69%,41 ± 5%,Verteporfin,38 ± 5%,

# Continued, molecule first:
Molecule,"inhibition at 30 µM [1, 6] [%]","inhibition at 30 µM [1, 7] [%]",Initial screen (% inhibition of CBS-induced AzMC fluorescence) ([1]; 30 μM),Confirmation (% inhibition of CBS-induced AzMC fluorescence) ([1]; 30 μM),Confirmation (% inhibition of GYY4137-induced AzMC fluorescence) ([2]; 30 μM),other results
"COC1=C(OC)C(=O)c2ccccc2C1=O [2,3-Dimethoxy-1,4-naphthoquinone]",53 ± 1,49,,,51 ± 4%,
NNCc1cccc(O)c1 [3-hydroxybenzylhydrazine],,,,,,"inhibition at 10 µM [1, 8]: 24%; inhibition at 30 µM [1, 8]: 37%; inhibition at 100 µM [1, 8]: 68%"
"NC(N)=NC(=O)c1nc(Cl)c(N2CCCCCC2)nc1N [5-(N,N-hexamethylene)amiloride]",,,72%,58 ± 3%,54 ± 4%,
O=C(O)C1=CC(=C(c2ccc(O)c(C(=O)O)c2)c2ccc(O)c(C(=O)O)c2)C=CC1=O [Aurintricarboxylic acid],87 ± 1,59,,,−2 ± 1%,"inhibition at 10 µM [3]: 38 ± 2%; inhibition at 30 µM [3]: 61 ± 1%; inhibition at 100 µM [3]: 72 ± 1%; IC50 [1]: ~3000 nM; inhibition at 10 µM [1, 9]: 72 ± 1%; inhibition at 100 µM [1, 10]: 94 ± 1%; % inhibition of GYY4137-induced AzMC fluorescence ([2]; 10 μM): −3 ± 2%; % inhibition of GYY4137-induced AzMC fluorescence ([2]; 100 μM): 6 ± 1%; Effect on HCT116 cell proliferation (words) (HCT116 cells [4]): did not inhibit cell proliferation at 10–100 μM; also recorded: at 300 μM increased cell proliferation; Effect on HCT116 cell proliferation (words) (HCT116 cells [4]; listed as aurintricarboxylic acid): stimulated cell proliferation at 300 μM"
C[C@@](Cc1ccc(O)c(O)c1)(NN)C(=O)O [Carbidopa],,,,,,"inhibition at 100 µM ([1]; read-out: % inhibition of recombinant CBS activity, 100 μM, standard assay conditions, freshly dissolved): 6%"
CC(C)/N=c1\cc2n(-c3ccc(Cl)cc3)c3ccccc3nc-2cc1Nc1ccc(Cl)cc1 [Clofazimine],30 ± 7,47,,,28 ± 5%,
Cc1cc(C(C#N)c2ccc(Cl)cc2)c(Cl)cc1NC(=O)c1cc(I)cc(I)c1O (centres unmarked) [Closantel],,,,,31 ± 2%,"inhibition at 30 µM [1, 11]: 25 ± 5%; inhibition at 30 µM [1, 12]: 43%"
"O=[N+]([O-])[O-].O=[N+]([O-])[O-].[Cu+2] [Cu(NO2)2, copper(II) nitrate]",,,,,,"IC50 [1, 13]: ~200 nM"
"CC(=O)[O-].CC(=O)[O-].[Cu+2] [CuAc, copper(II) acetate]",,,,,,"% inhibition of CBS-induced AzMC fluorescence ([1]; 0.1 μM): 39 ± 1%; % inhibition of CBS-induced AzMC fluorescence ([1]; 0.3 μM): 66 ± 1%; % inhibition of CBS-induced AzMC fluorescence ([1]; 1 μM): 92 ± 1%; IC50 [1, 13]: ~200 nM; % inhibition of GYY4137-induced AzMC fluorescence ([2]; copper compounds, 0.1 μM): 2 ± 2%; % inhibition of GYY4137-induced AzMC fluorescence ([2]; copper compounds, 0.3 μM): 12 ± 1%; % inhibition of GYY4137-induced AzMC fluorescence ([2]; copper compounds, 1 μM): 17 ± 1%"
COc1cc2cc3c4c(cc(OC)c(OC)c4c2cc1OC)CCN3C [Dehydroglaucine],,,,,,Initial screen (% inhibition of CBS-induced AzMC fluorescence) ([1]; 17 μM): 62% (17 μM); Confirmation (% inhibition of CBS-induced AzMC fluorescence) ([1]; 17 μM): 82 ± 4 (17 μM) %; Confirmation (% inhibition of GYY4137-induced AzMC fluorescence) ([2]; 17 μM): 57 ± 8 (17 μM) %
CC1=C(C2=C(C)C(=O)c3c(c(C=O)c(O)c(O)c3C(C)C)C2=O)C(=O)c2c(C=O)c(O)c(O)c(C(C)C)c2C1=O [Gossypolone],,,,,,"inhibition at 12 µM [1, 11]: 30 ± 5%; inhibition at 12 µM [1, 12]: 57%; Confirmation (% inhibition of GYY4137-induced AzMC fluorescence) ([2]; 12 μM): 25 ± 4 (12 μM) %"
"Oc1c(Cl)cc(Cl)c(Cl)c1Cc1c(O)c(Cl)cc(Cl)c1Cl.Oc1c(Cl)cc(Cl)c(Cl)c1Cc1c(O)c(Cl)cc(Cl)c1Cl [Hexachlorophene, 2,2′-methylenebis(3,4,6-trichlorophenol)-3,4,6-trichloro-2-[(2,3,5-trichloro-6-hydroxyphenyl)methyl]phenol]",12 ± 1,48,,,1 ± 1%,"inhibition at 10 µM [3]: 21 ± 1%; inhibition at 30 µM [3]: 31 ± 1%; inhibition at 100 µM [3]: 64 ± 1%; IC50 [1]: ~60000 nM; inhibition at 10 µM [1, 9]: 3 ± 1%; inhibition at 100 µM [1, 10]: 70 ± 1%; % inhibition of GYY4137-induced AzMC fluorescence ([2]; 10 μM): −4 ± 2%; % inhibition of GYY4137-induced AzMC fluorescence ([2]; 100 μM): −2 ± 1%; Cytotoxicity / LDH release in HCT116 cells (HCT116 cells [5]): exerted cytotoxic effects; Effect on HCT116 cell proliferation (words) (HCT116 cells [4]): did not affect HCT116 proliferation up to 3 μM; also recorded: fully inhibited cell proliferation at 10 μM; also recorded: inhibits HCT116 proliferation at fairly low concentrations (10 μM)"
O=C1C=CC(=O)c2c(O)cccc21 [Juglone],,,,,61 ± 3%,
CC(=O)[O][Hg][c]1ccccc1 [Phenylmercuric acetate],,,69% and 52%,50 ± 6% and 29 ± 4%,59 ± 2% and 32 ± 4%,
N.N.N.N.N.N.N.N.N.N.N.N.N.N.[Cl-].[Cl-].[Cl-].[Cl-].[Cl-].[Cl-].[O-2].[O-2].[Ru+3].[Ru+3].[Ru+4] [Ruthenium red],,,72%,72 ± 6%,72 ± 3%,
Chlorophyllide Cu complex Na salt,,,80%,97 ± 1%,78 ± 3%,"Initial screen (% inhibition of CBS-induced AzMC fluorescence) ([1]; 30 μM, listed as Chlorophyllide cu complex Na salt): 82%"
